Assay results taken from patent US10294202B2, “Pyrrolidinones as herbicides” (FMC Corporation, priority 2013, dated 2019).

Columns and labels:
galium = test: Test C pre-/postemergence herbicide test; type: in vivo, Galium aparine; conditions: Preemergence
Outline: (§1)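 Plants grown and held in a greenhouse for 13 to 15 days post-spray, then rated 0–100 by visual comparison with controls. Pre treatments targeted seeds in loam and sand; post treatments targeted 1- to 4-leaf plants in peat-based potting medium.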

morningglory = test: Test C pre-/postemergence herbicide test; type: in vivo, Ipomoea coccinea; conditions: Preemergence
Outline: as §1

wheat = test: Test A pre-/postemergence herbicide test; type: in vivo, Triticum aestivum; conditions: Postemergence
Outline: (§2)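 Approximately 10 days after treatment in the greenhouse, plants were compared with untreated controls and given a 0–100 visual injury rating. Applications: preemergence directed soil spray; postemergence on 2–10 cm plants at the one- to two-leaf stage.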

pigweed = test: Test C pre-/postemergence herbicide test; type: in vivo, Amaranthus retroflexus; conditions: Preemergence
Outline: as §1

giant foxtail = test: Test A pre-/postemergence herbicide test; type: in vivo, Setaria faberii; conditions: for Plant response rating, Foxtail, Giant: 0 to 100 scale
Outline: as §2

lambsquarters = test: Test C pre-/postemergence herbicide test; type: in vivo, Chenopodium album; conditions: Preemergence
Outline: as §1

wheat (winter wheat) = test: Test C pre-/postemergence herbicide test; type: in vivo, Triticum aestivum; conditions: Preemergence
Outline: as §1

barnyardgrass = test: Test C pre-/postemergence herbicide test; type: in vivo, Echinochloa crus-galli; conditions: Preemergence
Outline: as §1

foxtail, giant = test: Test C pre-/postemergence herbicide test; type: in vivo, Setaria faberii; conditions: Preemergence
Outline: as §1

johnsongrass = test: Test C pre-/postemergence herbicide test; type: in vivo, Sorghum halepense; conditions: Preemergence
Outline: as §1

[1] = 62 g ai/ha, scale 0 to 100 (0 no effect, 100 complete control)
[2] = 125 g ai/ha, scale 0 to 100 (0 no effect, 100 complete control)
[3] = 31 g ai/ha, scale 0 to 100, 0 is no effect and 100 is complete control

O=C1NCC(c2cccc(C(F)F)c2)C1C(=O)Nc1cccc(F)c1F (racemic) [Compound 211]
Galium plant response rating (galium; [1]): 5 | Plant response rating, Galium (galium; [2]): 85 | Plant response rating (scale of 0 to 100), Galium (galium; 250 g ai/ha): 100 | Morningglory plant response rating (morningglory; [3]): 0 | Morningglory plant response rating (morningglory; [1]): 0 | Plant response rating, Morningglory (morningglory; [2]): 0 | Plant response rating (scale of 0 to 100), Morningglory (morningglory; 250 g ai/ha): 0 | Plant response rating, Wheat (wheat; 125 g ai/ha, 0 to 100 scale, 0 is no effect, 100 is complete control): 30 | Wheat plant response rating (0 to 100 scale, 0 is no effect, 100 is complete control) (wheat; 500 g ai/ha): 80 | Pigweed plant response rating (pigweed; [1]): 0 | Plant response rating, Pigweed (pigweed; [2]): 0 | Plant response rating (scale of 0 to 100), Pigweed (pigweed; 250 g ai/ha): 70 | Plant response rating, Foxtail, Giant (giant foxtail; 125 g ai/ha, visual rating, 0 no effect, 100 complete control, approximately 10 days, preemergence): 80 | Plant response rating, Foxtail, Giant (giant foxtail; Postemergence, 125 g ai/ha, 0 is no effect, 100 is complete control): 70 | Foxtail, Giant plant response rating (0 to 100 scale, 0 is no effect, 100 is complete control) (giant foxtail; Postemergence, 500 g ai/ha): 90 | Plant response rating, Foxtail, Giant (giant foxtail; preemergence, 500 g ai/ha, 0 is no effect and 100 is complete control): 90 | Lambsquarters plant response rating (lambsquarters; [3]): 100 | Lambsquarters plant response rating (lambsquarters; [1]): 85 | Plant response rating, Lambsquarters (lambsquarters; [2]): 100 | Plant response rating (scale of 0 to 100), Lambsquarters (lambsquarters; 250 g ai/ha): 100 | Wheat plant response rating (wheat (winter wheat); [3]): 0 | Wheat plant response rating (wheat (winter wheat); [1]): 0 | Plant response rating, Wheat (wheat (winter wheat); [2]): 30 | Plant response rating (scale of 0 to 100), Wheat (wheat (winter wheat); 250 g ai/ha): 45 | Barnyardgrass plant response rating (barnyardgrass; [3]): 30 | Plant response rating, Barnyardgrass (barnyardgrass; 62 g ai/ha, scale 0 to 100): 65 | Plant response rating, Barnyardgrass (barnyardgrass; [2]): 85 | Plant response rating (scale of 0 to 100; 0 is no effect, 100 is complete control), Barnyardgrass (barnyardgrass; 250 g ai/ha): 90 | Foxtail, Giant plant response rating (foxtail, giant; [3]): 0 | Foxtail, Giant plant response rating (foxtail, giant; [1]): 70 | Plant response rating, Foxtail, Giant (foxtail, giant; [2]): 90 | Plant response rating (scale of 0 to 100), Foxtail, Giant (foxtail, giant; 250 g ai/ha): 95 | Johnsongrass plant response rating (johnsongrass; [3]): 0 | Johnsongrass plant response rating (johnsongrass; [1]): 0 | Plant response rating, Johnsongrass (johnsongrass; [2]): 30 | Plant response rating (scale of 0 to 100), Johnsongrass (johnsongrass; 250 g ai/ha): 65
